Each block holds one molecule with its values, some of them ahead of it. Activity calls are given as the source filed them. The rule behind the calls is not given here.
Tests used:
MDA-MB-231 [1] = experiment: Antiproliferative activity against human MDA-MB-231 cells assessed as reduction in cell viability after 48 hrs by MTT assay; type: functional, cell-based; conditions: MDA-MB-231, 48 h
4T1 [2] = experiment: Antiproliferative activity against mouse 4T1 cells assessed as reduction in cell viability after 48 hrs by MTT assay; type: functional, cell-based; conditions: 4T1, 48 h
MDA-MB-231 [3] = experiment: Inhibition of colony formation in human MDA-MB-231 cells at 2.5 to 5 uM incubated for 7 days by crystal violet staining based assay; type: functional, cell-based; conditions: dose 2.5-5 µM, time 7.0 day
4T1 [4] = experiment: Inhibition of colony formation in mouse 4T1 cells at 2.5 to 5 uM incubated for 7 days by crystal violet staining based assay; type: functional, cell-based; conditions: dose 2.5-5 µM, time 7.0 day
MDA-MB-231 [5] = experiment: Inhibition of cell stemness in human MDA-MB-231 cells assessed as reduction in size of tumor spheres incubated in tumorsphere medium for 4 days followed by compound incubation for 96 hrs by microscopic analysis; type: functional, cell-based
4T1 [6] = experiment: Inhibition of cell stemness in mouse 4T1 cells assessed as reduction in size of tumor spheres incubated in tumorsphere medium for 4 days followed by compound incubation for 96 hrs by microscopic analysis; type: functional, cell-based
MDA-MB-231 [7] = experiment: Inhibition of cell migration in human MDA-MB-231 cells at 2.5 to 5 uM incubated for 36 hrs by wound healing assay; type: functional, cell-based; conditions: dose 2.5-5 µM
4T1 [8] = experiment: Inhibition of cell migration in mouse 4T1 cells at 5 to 10 uM incubated for 24 hrs by wound healing assay; type: functional, cell-based; conditions: dose 5-10 µM
MDA-MB-231 [9] = experiment: Antitumor activity against human MDA-MB-231 cells assessed as reduction in cell invasion at 2.5 to 5 uM measured after 24 hrs by crystal violet staining based transwell assay; type: functional; conditions: dose 2.5-5 µM
4T1 [10] = experiment: Antitumor activity against mouse 4T1 cells assessed as reduction in cell invasion at 2.5 to 5 uM measured after 24 hrs by crystal violet staining based transwell assay; type: functional; conditions: dose 2.5-5 µM
MDA-MB-231 [11] = experiment: Antimetastatic activity against human MDA-MB-231 cells assessed as accumulation of E-cadherin in cell cytoplasm at 5 to 10 uM measured after 48 hrs by Western blot analysis; type: functional, cell-based; conditions: dose 5-10 µM
MDA-MB-231 [12] = experiment: Antimetastatic activity against human MDA-MB-231 cells assessed as decrease in E-cadherin expression in cell membrane at 5 to 10 uM measured after 48 hrs by Western blot analysis; type: functional, cell-based; conditions: dose 5-10 µM
[13] = target: T1, Annexin A2/S100-A10 (Homo sapiens) (UniProt P07355+P60903); experiment: Inhibition of human ANXA2/S100A10 interaction in MDA-MB-231 cells pretreated with compound for 48 hrs by immunoprecipitation based Western blot analysis; type: cell-based
T1 sequence (P07355 2-339 limits assumed): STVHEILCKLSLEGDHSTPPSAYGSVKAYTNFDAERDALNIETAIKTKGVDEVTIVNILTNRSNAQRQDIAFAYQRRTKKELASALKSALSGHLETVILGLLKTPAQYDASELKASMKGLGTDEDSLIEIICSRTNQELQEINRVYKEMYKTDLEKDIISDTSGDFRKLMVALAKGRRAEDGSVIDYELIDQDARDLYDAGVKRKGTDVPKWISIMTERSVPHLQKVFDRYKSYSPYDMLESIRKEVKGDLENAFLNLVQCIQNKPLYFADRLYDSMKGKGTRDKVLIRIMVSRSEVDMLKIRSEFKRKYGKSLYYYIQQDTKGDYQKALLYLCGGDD
T1 sequence (P60903 whole entry partner): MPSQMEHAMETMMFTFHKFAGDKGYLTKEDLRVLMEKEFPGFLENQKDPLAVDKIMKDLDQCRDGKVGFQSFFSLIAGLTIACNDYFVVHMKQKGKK

[14] = target: T1, Annexin A2/S100-A10 (Homo sapiens); experiment: Inhibition of human ANXA2/S100A10 interaction in MDA-MB-231 cells at 5 to 10 uM measured after 48 hrs by immunocytochemistry assay; type: cell-based; conditions: dose 5-10 µM
MDA-MB-231 [15] = experiment: Inhibition of cell stemness in human MDA-MB-231 cells assessed as reduction in tumor spheres count at 10 to 20 uM incubated in tumorsphere medium for 4 days followed by compound incubation for 96 hrs by microscopic analysis; type: functional, cell-based; conditions: dose 10-20 µM
4T1 [16] = experiment: Inhibition of cell stemness in mouse 4T1 cells assessed as reduction in tumor spheres count at 10 to 20 uM incubated in tumorsphere medium for 4 days followed by compound incubation for 96 hrs by microscopic analysis; type: functional, cell-based; conditions: dose 10-20 µM
4T1 [17] = experiment: Antitumor activity against mouse 4T1 cells expressing luciferase gene implanted in BALB/c lung metastatic mouse model assessed as reduction in fluorescence at 10 mg/kg, ip administered twice a week for 20 days by luciferase reporter gene based bioluminescence assay; type: functional, organism-based; conditions: time 20.0 day
4T1 [18] = experiment: Antitumor activity against mouse 4T1 cells xenografted in BALB/c mouse assessed as tumor growth inhibition at 100 mg/kg, po administered once a day for 36 days; type: functional; conditions: 4T1, po, 864 h, time 36 day, read-out: TGI
4T1 [19] = experiment: Antitumor activity against mouse 4T1 cells xenografted in BALB/c mouse assessed as decrease in lung metastasis at 100 mg/kg, po administered once a day for 36 days by H&E staining based assay; type: functional, organism-based; conditions: time 36.0 day
4T1 [20] = experiment: Antitumor activity against mouse 4T1 cells xenografted in BALB/c mouse assessed as decrease in liver metastasis at 100 mg/kg, po administered once a day for 36 days by H&E staining based assay; type: functional, organism-based; conditions: time 36.0 day
4T1 [21] = experiment: Antitumor activity against mouse 4T1 cells expressing luciferase gene implanted in BALB/c lung metastatic mouse model assessed as reduction in fluorescence at 100 mg/kg, po administered once a day for 20 days by luciferase reporter gene based bioluminescence assay; type: functional, organism-based; conditions: time 20.0 day
4T1 [22] = experiment: Antitumor activity against mouse 4T1 cells expressing luciferase gene implanted in BALB/c lung metastatic mouse model assessed as decrease in lung metastasis at 100 mg/kg, po administered once a day for 20 days by H&E staining based assay; type: functional, organism-based; conditions: time 20.0 day
4T1 [23] = experiment: Antitumor activity against mouse 4T1 cells expressing luciferase gene implanted in BALB/c lung metastatic mouse model assessed as decrease in lung metastatic burden at 100 mg/kg, po administered once a day for 20 days by H&E staining based assay; type: functional, organism-based; conditions: time 20.0 day
4T1 [24] = experiment: Antimetastatic activity against mouse 4T1 cells expressing luciferase gene implanted in BALB/c lung metastatic mouse model assessed as down regulation of E-cadherin expression in liver tissue at 100 mg/kg, po administered once a day for 20 days; type: functional, organism-based; conditions: time 20.0 day
4T1 [25] = experiment: Antimetastatic activity against mouse 4T1 cells expressing luciferase gene implanted in BALB/c lung metastatic mouse model assessed as down regulation of ANXA2 expression in liver tissue at 100 mg/kg, po administered once a day for 20 days; type: functional, organism-based; conditions: time 20.0 day
[26] = Toxicity in BALB/c mouse xenografted with mouse 4T1 assessed as effect on body weight at 100 mg/kg, po administered once a day for 36 days; type: organism-based; conditions: in vivo, 864 h, time 36 day

IC50 (MDA-MB-231 [1]): 16 µM | IC50 (4T1 [2]): 18.4 µM | inhibition [13]: Active | inhibition [14]: Active
SMILES: C=C1C(=O)O[C@@H]2C[C@@]3(C)CCC[C@H](C)[C@@]34O[C@H]4[C@H]12
inhibition (MDA-MB-231 [3]): Active | inhibition (4T1 [4]): Active | inhibition (MDA-MB-231 [5]): Dose-Dependent Effect | inhibition (4T1 [6]): Dose-Dependent Effect | inhibition (MDA-MB-231 [7]): Active | inhibition (4T1 [8]): Active | Activity (MDA-MB-231 [9]): Active | Activity (4T1 [10]): Active | Activity (MDA-MB-231 [11]): Active | Activity (MDA-MB-231 [12]): Active | inhibition (MDA-MB-231 [15]): Active | inhibition (4T1 [16]): Active

SMILES: CC(=O)O[C@H]1C(=O)[C@@]2(C)[C@H]([C@H](OC(=O)c3ccccc3)[C@]3(O)C[C@H](OC(=O)[C@H](O)[C@@H](NC(=O)c4ccccc4)c4ccccc4)C(C)=C1C3(C)C)[C@]1(OC(C)=O)CO[C@@H]1C[C@@H]2O
Activity (4T1 [17]): inactive

SMILES: C[C@H]1CCC[C@]2(C)C[C@H]3OC(=O)[C@@H](CN(C)C)[C@H]3[C@@H]3O[C@@]132.O=C(O)/C=C/C(=O)O
inhibition in vivo at 100 mg/kg (4T1 [18]): 30% | Activity (4T1 [19]): Active | Activity (4T1 [20]): Active | Activity (4T1 [21]): Active | Activity (4T1 [22]): Active | Activity (4T1 [23]): Active | Activity (4T1 [24]): Active | Activity (4T1 [25]): Active | Activity [26]: Non-Toxic

Source: ChEMBL document CHEMBL5038604, “5α-Epoxyalantolactone Inhibits Metastasis of Triple-Negative Breast Cancer Cells by Covalently Binding a Conserved Cysteine of Annexin A2” (J Med Chem, 2021)
